*1 amine or outer side, *2 acyl side, *3 side chain or, on linkers, in order; H or OH if unused. Where a SMILES comes first, the peptide text is derived from it. Bridges are numbered along the chain shown (N, C = ends). Roman numbers before positions name the chains, in order. [ ]: non-standard residue; d: D form. Actinocin(9to1) = Cc1c2oc3c(C)ccc(C(=O)[*:1])c3nc-2c(C(=O)[*:2])c(N)c1=O; NMeV = CN[C@H](C(=O)O)C(C)C; Sar = CNCC(=O)O
Experiments:
HeLa cell [1] = assay: Cytotoxicity on human cultured cancer cells, relative survival rate (Evaluation 7); format: cell-based; details: control
Experimental: HeLa cells were cultured in a 96-well plate using Dulbecco's Modified Eagle's Medium (DHEM) under the culture conditions of 5% carbon dioxide and at 37° C. The compound (8b) (final concentration 50 μM), the compound (8f) (final concentration 50 μM), DMSO (final concentration 0.25%), Actinomycin D (final concentration 5 μg/ml) or Nocodazole (final concentration 100 ng/ml) was added 0 (48-hr compound treated sample), 12 (36-hr compound treated sample), 24 (24-hr compound treated sample), 36 (12-hr compound treated sample), and 48 (0-hr compound treated sample) hours after the culture was started. All of the samples were measured for living cell counts 48 hours after the culture was started with a cell counting kit (DOJINDO LABORATORIES), and a measured value of each-time compound treated-sample was divided by the measured value of 0-time compound treated sample to calculate a relative survival rate.
In addition, a transcription inhibitor Actinomycin D and a tubulin polymerization inhibitor Nocodazole were used as controls of the compounds which had cytotoxicity (induces apoptosis). DMSO is a solvent in which the compound (8b) or the compound (8f) was dissolved, and used as a control to observe the affect of the solvent on the cells.

E. coli (DH5a strain) = assay: E. coli growth inhibiting activity (Evaluation 5); format: cell-based
Experimental: The compound (6a) or the compound (7) (final concentration 10 μM or 100 μM), 50% ethanol (final concentration 0.05% or 0.5%), or ampicillin (final concentration 50 μg/ml) was added to LB medium in which E. coli (DH5a strain) was added to carry out shaking culture at 37° C. One, 2, 4, and 6 hours after the culture was started, turbidity (OD600) of the culture medium was measured with a spectrophotometer to analyze the affect of the compound (6a) or the compound (7), 50% ethanol, ampicillin on the growth of E. coli cells.
In addition, ampicillin was used as a control of the compound which inhibits the growth.

thale cress = assay: Activities on plants: growth of thale cress on agar medium (Evaluation 1, 6); format: in vivo, thale cress (Col-0, wild-type strain); details: for plant growth inhibition effect (activity on plant growth) / twisting of root epidermal cells / abnormality in direction of root growth: thale cress Col-0, agar medium, 7 days; for twisting of root epidermal cells / abnormality in direction of root growth: scanned images
Experimental: The test compound (compound (6a)) and DMSO for a control experiment, were added at this stage and blended. Fifty ml each of the medium was dispensed in sterile No. 2 square petri dishes (Eiken Chemical Co., Ltd.) to prepare agar medium. As a plant material, Col-0, which is a wild-type strain of […] used. Seeds, after their surfaces were sterilized, were planted on the agar medium, and vernalized at 4° C. for 16 hours. Growth of the plant was carried out in a growth chamber (SANYO MLR-351) under the conditions of an illuminance of 3 at 23° C. with constant light. The agar medium was allowed to stand upright in the chamber to grow the plant for 7 days. Lids of the petri dishes used for the test were opened, the test results were recorded with a scanner, and with the scanned images, […]

[2] = test system: Saccharomyces cerevisiae (BY4741 strain); assay: Growth inhibiting activity on Saccharomyces cerevisiae (Evaluation 4); format: cell-based; details: final concentration 10 μM or 100 μM, up to 24 hours
Experimental: The compound (6a) or the compound (7) (final concentration 10 μM or 100 μM), or 50% ethanol (final concentration 0.05% or 0.5%) was added to YPD medium in which Saccharomyces cerevisiae (BY4741 strain) was inoculated to carry out shaking culture at 30° C. Four, 8, 16, and 24 hours after the culture was started, turbidity (OD600) of the culture medium was measured with a spectrophotometer to analyze the affect of the compound (6a) or the compound (7), or 50% ethanol on the growth of the […] cells.

HeLa cell [3] = assay: Cell proliferation inhibiting activity on human cultured cancer cells (Evaluation 2); format: cell-based; details: 32 hours; for effect on growth rate of HeLa cells (living cell counts): final concentration 200 μM
Experimental: Every 8 hours after the culture was started, living cell counts were measured with a cell counting kit (DOJINDO LABORATORIES). In addition, staurosporine was used as a control of the compound which inhibits the cell proliferation.

[4] = test system: Schizosaccharomyces pombe (wild-type strain 972); assay: Growth inhibiting activity on Schizosaccharomyces pombe (Evaluation 3); format: cell-based; details: final concentration 100 μM, up to 30 hours
Experimental: The compound (6a) or the compound (7) (final concentration 100 μM) or 50% ethanol (final concentration 0.5%) was added to YE medium in which Schizosaccharomyces pombe (wild-type strain 972) was inoculated to carry out shaking culture at 30° C. Six, 12, 18, 24, and 30 hours after the culture was started, turbidity (OD600) of the culture medium was measured with a spectrophotometer to analyze the affect of the compound (6a) or the compound (7), or 50% ethanol on the growth of the Schizosaccharomyces pombe cells.

[5] = final concentration 10 μM or 100 μM, up to 6 hours
[6] = thale cress Col-0, concentration of 1000 μM

Cc1c2oc3c(C)ccc(C(=O)N[C@@H]4C(=O)N[C@H](C(C)C)C(=O)N5CCC[C@H]5C(=O)N(C)CC(=O)N(C)[C@@H](C(C)C)C(=O)O[C@@H]4C)c3nc-2c(C(=O)N[C@@H]2C(=O)N[C@H](C(C)C)C(=O)N3CCC[C@H]3C(=O)N(C)CC(=O)N(C)[C@@H](C(C)C)C(=O)O[C@@H]2C)c(N)c1=O [Actinomycin D] (I: T[dV]P[Sar][NMeV] / II: T[dV]P[Sar][NMeV]; ester I:1-I:C, II:1-II:C; linker I:N-II:N via Actinocin(9to1))
viability of HeLa cells (relative survival rate) (HeLa cell [1]; final concentration 5 μg/ml): induced apoptosis

CC1(C)S[C@@H]2[C@H](NC(=O)[C@H](N)c3ccccc3)C(=O)N2[C@H]1C(=O)O [ampicillin, reference compound]
E. coli growth (OD600) (E. coli (DH5a strain); final concentration 50 μg/ml, control): growth inhibition was observed

O=C(O)c1cccn1OCc1ccccc1 [Compound 6g, 1-(Benzyloxy)-1H-pyrrole-2-carboxylic acid]
plant growth inhibition effect (activity on plant growth) (thale cress): a plant growth inhibiting effect was observed even more than when each of the compounds (6d) to (6f)

COn1cccc1C(N)=O [Compound 7, 1-Methoxy-1H-pyrrole-2-carboxamide]
growth of Saccharomyces cerevisiae (OD600) [2]: neither the compound (6a) nor the compound (7) inhibits the growth | effect on growth rate of HeLa cells (living cell counts) (HeLa cell [3]): no affect at all | E. coli growth (OD600) (E. coli (DH5a strain); [5]): neither the compound (6a) nor the compound (7) inhibits the E. coli growth | growth of Schizosaccharomyces pombe (OD600) [4]: neither the compound (6a) nor the compound (7) inhibits the growth | twisting of root epidermal cells / abnormality in direction of root growth (thale cress): epidermal cells of the roots were twisted leftward and abnormality in a direction of the root growth was observed

C#CC(C)(C)NC(=O)c1cc(Cl)cc(Cl)c1 [Propyzamide, reference compound]
twisting of root epidermal cells / abnormality in direction of root growth (thale cress): abnormality in a direction of the root growth was also observed

COn1cccc1C(=O)O [Compound 6a, 1-Methoxy-1H-pyrrole-2-carboxylic acid]
growth of Saccharomyces cerevisiae (OD600) [2]: neither the compound (6a) nor the compound (7) inhibits the growth | effect on growth rate of HeLa cells (living cell counts) (HeLa cell [3]): no affect at all | E. coli growth (OD600) (E. coli (DH5a strain); [5]): neither the compound (6a) nor the compound (7) inhibits the E. coli growth | growth of Schizosaccharomyces pombe (OD600) [4]: neither the compound (6a) nor the compound (7) inhibits the growth | plant growth inhibition effect (activity on plant growth) (thale cress): plant growth inhibition was significantly observed | twisting of root epidermal cells / abnormality in direction of root growth (thale cress): epidermal cells of the roots were twisted leftward and abnormality in a direction of root growth was observed | root epidermal cells, observation by stereomicroscope (thale cress; thale cress Col-0, compound added, FIG. 2): epidermal cells of the roots were observed to have been twisted leftward

CCCOn1cccc1C(=O)O [Compound 6d, 1-Propoxy-1H-pyrrole-2-carboxylic acid]
germination (thale cress; [6]): No germinations were observed

O=C(O)c1cccn1O [Compound 6c, 1-Hydroxy-1H-pyrrole-2-carboxylic acid]
plant growth inhibition effect (activity on plant growth) (thale cress): no activity was observed

CCCCOn1cccc1C(=O)O [Compound 6f, 1-Butoxy-1H-pyrrole-2-carboxylic acid]
germination (thale cress; thale cress Col-0, concentration of 500 μM): substantially no germination was observed | germination (thale cress; [6]): no germination was observed

CC(C)On1cccc1C(=O)O [Compound 6e, 1-Isopropoxy-1H-pyrrole-2-carboxylic acid]
germination (thale cress; [6]): No germinations were observed

COC(=O)Nc1nc2ccc(C(=O)c3cccs3)cc2[nH]1 [Nocodazole]
viability of HeLa cells (relative survival rate) (HeLa cell [1]; final concentration 100 ng/ml): induced apoptosis

CCOn1cccc1C(=O)O [Compound 6b, 1-Ethoxy-1H-pyrrole-2-carboxylic acid]
twisting of root epidermal cells / abnormality in direction of root growth (thale cress): epidermal cells of the roots were twisted leftward and abnormality in a direction of the root growth was observed

CN[C@@H]1C[C@H]2O[C@@](C)([C@@H]1OC)n1c3ccccc3c3c4c(c5c6ccccc6n2c5c31)C(=O)NC4 [staurosporine, reference compound]
effect on HeLa cells (living cell counts) (HeLa cell [3]; final concentration 1 μM, control): induced the apoptosis

— patent US11685716B2, “Plant growth inhibiting agent, and plant growth inhibiting method using same” (NATIONAL UNIVERSITY CORPORATION KUMAMOTO UNIVERSITY, priority 2017, dated 2023)
